Experimental findings from patent publication US10508120B2, “TYK2 inhibitors and uses thereof” (Nimbus Lakshmi, Inc., priority 2017, dated 2019) are described below.

Experiment [1] has as its target human TYK2 (JH2domain-pseudokinase) (Homo sapiens (Human), UniProt P29597). In words: TYK2 JH2 Domain Binding Assay (KINOMEscan). In outline: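 Pseudokinase domain binding was measured by qPCR of tagged, bead-retained kinase after 1 h room-temperature competition, with 0.9% DMSO and compound up to 30,000 nM in 3-fold steps. Hill-equation Kd, duplicate.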
Experiment [2] addresses Tyk2 kinase domain (DH1) (Homo sapiens (Human), UniProt P29597). In words: Tyk2 Radioactive Kinase Assay. Format: biochemical. Conditions: compound at 10 μM, ATP 10 μM; for inhibition at 10 µM: read-out: Tyk2 JH1% Inhibition @ 10 μM. In outline: (§1)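 Compounds were tested at a single concentration of 10 μM in a radiometric kinase format against each isolated kinase domain. Activity is reported as percent inhibition at that concentration.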

The target of experiment [3] is JAK2 kinase domain (JH1) (Homo sapiens (Human), UniProt O60674). In words: JAK2 Radioactive Kinase Assay. As to conditions: compound at 10 μM, ATP 10 μM; for inhibition at 10 µM: read-out: JAK2 JH1% Inhibition @ 10 μM. Type of experiment: biochemical. An outline of the steps:
as §1

pKd: −log10 of the molar value.

JAK2 kinase domain (JH1), sequence (O60674 849-1124): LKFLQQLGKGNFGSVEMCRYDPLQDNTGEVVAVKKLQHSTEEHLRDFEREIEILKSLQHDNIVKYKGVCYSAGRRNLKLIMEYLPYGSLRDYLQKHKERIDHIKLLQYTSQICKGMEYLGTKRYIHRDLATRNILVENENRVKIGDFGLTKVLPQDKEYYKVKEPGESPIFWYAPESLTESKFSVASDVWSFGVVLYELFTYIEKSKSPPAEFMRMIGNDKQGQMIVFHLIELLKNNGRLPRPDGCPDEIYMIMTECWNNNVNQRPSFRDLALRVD
Tyk2 kinase domain (DH1), sequence (P29597 897-1176): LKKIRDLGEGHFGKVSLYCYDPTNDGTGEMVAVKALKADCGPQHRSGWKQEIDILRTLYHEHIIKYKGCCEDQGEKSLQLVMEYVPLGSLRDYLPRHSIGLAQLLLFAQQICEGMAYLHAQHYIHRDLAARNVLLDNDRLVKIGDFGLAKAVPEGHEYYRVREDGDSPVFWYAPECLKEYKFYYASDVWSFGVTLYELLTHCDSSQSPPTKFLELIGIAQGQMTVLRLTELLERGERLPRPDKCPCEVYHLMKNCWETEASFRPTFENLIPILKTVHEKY
human TYK2 (JH2domain-pseudokinase), sequence (P29597 556-888): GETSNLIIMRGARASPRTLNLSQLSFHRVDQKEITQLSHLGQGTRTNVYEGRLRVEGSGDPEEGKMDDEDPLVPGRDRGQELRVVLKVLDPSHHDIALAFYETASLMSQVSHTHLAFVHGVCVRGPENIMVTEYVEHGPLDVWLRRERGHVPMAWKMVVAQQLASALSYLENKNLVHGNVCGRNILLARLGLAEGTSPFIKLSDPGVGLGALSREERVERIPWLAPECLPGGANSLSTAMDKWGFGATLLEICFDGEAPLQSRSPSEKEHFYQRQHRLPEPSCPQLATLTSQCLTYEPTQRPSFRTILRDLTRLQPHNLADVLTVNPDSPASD

With `CNc1cc(Nc2cccn([C@H]3CC[C@](C)(OC)CC3)c2=O)nc2c(C(=O)N[C@H]3CC[C@H]3O)cnn12` [I-723, N-((1R,2S)-2-hydroxycyclobutyl)-5-((1-((1R,4R)-4-methoxy-4-methylcyclohexyl)-2-oxo-1,2-dihydropyridin-3-yl)amino)-7-(methylamino)pyrazolo[1,5-a]pyrimidine-3-carboxamide], in experiment [1], the pKd (commonly the negative decadic logarithm of the Kd, by convention in mol/L) is 9.00 to 9.70. The inhibition at 10 µM in experiment [2] and in experiment [3] was below 50% throughout.
`CNc1cc(Nc2cccn([C@@H]3CCCOC3)c2=O)nc2c(C(=O)N[C@@H]3CC[C@H]3O)cnn12` [I-727] had a pKd in experiment [1] above 9.70. Also, the inhibition at 10 µM in experiment [2] and in experiment [3] was below 50% in each case.
In turn, `CNc1cc(Nc2cccn([C@H]3CCCOC3)c2=O)nc2c(C(=O)N[C@H]3CC[C@H](O)C3)cnn12` [I-728] had a pKd in experiment [1] above 9.70. Besides, the “Tyk2 JH1% Inhibition @ 10 μM” value in experiment [2] is reported as “A (percent inhibition at 10 μM lower than 50)”. In experiment [3], the “JAK2 JH1% Inhibition @ 10 μM” value was “A (percent inhibition at 10 μM lower than 50)”.
On to `CNc1cc(Nc2cccn([C@H]3CCCOC3)c2=O)nc2c(C(=O)N[C@@H]3CC[C@@H](O)C3)cnn12` [I-729], for which the pKd in experiment [1] was above 9.70. Besides, the inhibition at 10 µM in experiment [2] and in experiment [3] was below 50% each time.
As for `CNc1cc(Nc2cccn(-c3ccccn3)c2=O)nc2c(C(=O)NC[C@H](C)CO)cnn12` [I-730], the pKd in experiment [1] is above 9.70. The inhibition at 10 µM in experiment [2] and in experiment [3] was below 50% in each case.
In turn, `CNc1cc(Nc2cccn(-c3ccccn3)c2=O)nc2c(C(=O)NC[C@@H](C)CO)cnn12` [I-731] had a pKd in experiment [1] of 9.00 to 9.70. Further, the inhibition at 10 µM in experiment [2] and in experiment [3] was below 50% in each case.
In experiment [1], `CNc1cc(Nc2cccn([C@@H]3CCCOC3)c2=O)nc2c(C(=O)N[C@H]3CCC[C@H](O)C3)cnn12` [I-734] had a pKd of 9.00 to 9.70. Moreover, the “Tyk2 JH1% Inhibition @ 10 μM” value in experiment [2] is “A (percent inhibition at 10 μM lower than 50)”. In addition, the “JAK2 JH1% Inhibition @ 10 μM” value in experiment [3] is “A (percent inhibition at 10 μM lower than 50)”.
Regarding `CNc1cc(Nc2cccn([C@@H]3CCCOC3)c2=O)nc2c(C(=O)N[C@@H]3CCC[C@@H](O)C3)cnn12` [I-735], in experiment [1], the pKd was above 9.70. Moreover, the inhibition at 10 µM in experiment [2] and in experiment [3] was below 50% throughout.
For the compound `CNc1cc(Nc2cccn(-c3nc(C)co3)c2=O)nc2c(C(=O)NC[C@H](C)CO)cnn12` [I-736], the pKd in experiment [1] is above 9.70. Moreover, the inhibition at 10 µM in experiment [2] and in experiment [3] was below 50% in each case.
`CNc1cc(Nc2cccn(-c3nc(C)co3)c2=O)nc2c(C(=O)NC[C@@H](C)CO)cnn12` [I-737] showed a pKd in experiment [1] above 9.70. For the same compound, the inhibition at 10 µM in experiment [2] and in experiment [3] was below 50% in each case.
On to `CNc1cc(Nc2cccn([C@@H]3CCCOC3)c2=O)nc2c(C(=O)N[C@H]3CC[C@H](O)C3)cnn12` [I-738], for which the pKd in experiment [1] is 9.00 to 9.70. The “Tyk2 JH1% Inhibition @ 10 μM” value in experiment [2] is “A (percent inhibition at 10 μM lower than 50)”. In addition, the “JAK2 JH1% Inhibition @ 10 μM” value in experiment [3] is listed as “A (percent inhibition at 10 μM lower than 50)”.
Take `CNc1cc(Nc2cccn([C@@H]3CCCOC3)c2=O)nc2c(C(=O)N[C@@H]3CC[C@@H](O)C3)cnn12` [I-739]: in experiment [1], the pKd was 9.00 to 9.70. For the same compound, the inhibition at 10 µM in experiment [2] and in experiment [3] was below 50% in each case.
The compound `CNc1cc(Nc2cc(Cl)cn(C3CCCOC3)c2=O)nc2c(C(=O)N[C@H]3[C@@H]4COC[C@@H]43)cnn12` (stereo partly drawn) [I-741, N-((1R,5S,6r)-3-oxabicyclo[3.1.0]hexan-6-yl)-5-((5-chloro-2-oxo-1-(tetrahydro-2H-pyran-3-yl)-1,2-dihydropyridin-3-yl)amino)-7-(methylamino)pyrazolo[1,5-a]pyrimidine-3-carboxamide] gave a pKd in experiment [1] above 9.70. Further, the inhibition at 10 µM in experiment [2] and in experiment [3] was below 50% throughout.
The compound `CNc1cc(Nc2cccn([C@@H]3CC[C@H]3O)c2=O)nc2c(C(=O)NC3CC3)cnn12` [I-742] gave a pKd in experiment [1] above 9.70. Besides, the inhibition at 10 µM in experiment [2] and in experiment [3] was below 50% throughout.
Turning to `CNc1cc(Nc2cccn(-c3ccccn3)c2=O)nc2c(C(=O)N[C@@H]3CC[C@@H]3O)cnn12` [I-743], in experiment [1], the pKd was above 9.70. The inhibition at 10 µM in experiment [2] and in experiment [3] was below 50% in each case.
In experiment [1], `CNc1cc(Nc2cccn([C@H]3CCCOC3)c2=O)nc2c(C(=O)N[C@H]3CC[C@H]3O)cnn12` [I-745] showed a pKd above 9.70. For the same compound, the inhibition at 10 µM in experiment [2] and in experiment [3] was below 50% in each case.
As to `CNc1cc(Nc2cccn([C@H]3CC[C@H](OC)CC3)c2=O)nc2c(C(=O)N[C@H]3COC[C@H]3O)cnn12` [I-746], the negative logarithm of the Kd (pKd) in experiment [1] was 9.00 to 9.70. The inhibition at 10 µM in experiment [2] and in experiment [3] was below 50% in each case.
Take `CNc1cc(Nc2cccc3ocnc23)nc2c(C(=O)NCC3(CO)CC3)cnn12` [I-749]: in experiment [1], the pKd is above 9.70. The inhibition at 10 µM in experiment [2] and in experiment [3] was below 50% in each case.
For `CNc1cc(Nc2cccn([C@@H]3CCCOC3)c2=O)nc2c(C(=O)N[C@@H]3CC[C@@H]3O)cnn12` [I-752], the pKd in experiment [1] was 9.00 to 9.70. Moreover, the inhibition at 10 µM in experiment [2] and in experiment [3] was below 50% throughout.
As to `CNc1cc(Nc2cccn([C@H]3CCCOC3)c2=O)nc2c(C(=O)N[C@H]3COC[C@H]3O)cnn12` [I-753], the pKd in experiment [1] was 9.00 to 9.70. The inhibition at 10 µM in experiment [2] and in experiment [3] was below 50% in each case.
With `CNc1cc(Nc2cccn([C@@H]3CCCOC3)c2=O)nc2c(C(=O)N[C@H]3COC[C@H]3O)cnn12` [I-754], the pKd in experiment [1] is above 9.70. Further, the inhibition at 10 µM in experiment [2] and in experiment [3] was below 50% each time.
Take `CNc1cc(Nc2cccc3ocnc23)nc2c(C(=O)N[C@H]3COC[C@H]3O)cnn12` [I-755]: in experiment [1], the pKd is above 9.70. In addition, the inhibition at 10 µM in experiment [2] and in experiment [3] was below 50% each time.
In experiment [1], `CNc1cc(Nc2cccc(N3CC(O)C3)n2)nc2c(C(=O)N[C@@H]3C[C@@H]3F)cnn12` [I-757] showed a pKd above 9.70. For the same compound, the inhibition at 10 µM in experiment [2] and in experiment [3] was below 50% in each case.
`CNc1cc(Nc2cccc(N3CC4(CCO4)C3)n2)nc2c(C(=O)N[C@H]3CC[C@H]3O)cnn12` [I-758] showed a pKd in experiment [1] of 9.00 to 9.70. The inhibition at 10 µM in experiment [2] and in experiment [3] was below 50% in each case.
As for `CNc1cc(Nc2cccn([C@H]3CCC[C@H](O)C3)c2=O)nc2c(C(=O)NC3CC3)cnn12` [I-760], the pKd in experiment [1] is above 9.70. In addition, the inhibition at 10 µM in experiment [2] and in experiment [3] was below 50% each time.
In turn, `CNc1cc(Nc2cccn(C3CCN(C)CC3(F)F)c2=O)nc2c(C(=O)NC3CC3)cnn12` (stereo not drawn) [I-761] had a pKd in experiment [1] of 9.00 to 9.70. The inhibition at 10 µM in experiment [2] and in experiment [3] was below 50% throughout.
In experiment [1], `CNc1cc(Nc2cccn(C3CC4(COC4)C3)c2=O)nc2c(C(=O)N[C@H]3CC[C@H]3O)cnn12` [I-763] gave a pKd above 9.70. In addition, the inhibition at 10 µM in experiment [2] and in experiment [3] was below 50% throughout.
For `CNc1cc(Nc2cccn(-c3ccc(C)nc3)c2=O)nc2c(C(=O)NC3CC3)cnn12` [I-765, N-cyclopropyl-5-((6′-methyl-2-oxo-2H-[1,3′-bipyridin]-3-yl)amino)-7-(methylamino)pyrazolo[1,5-a]pyrimidine-3-carboxamide], in experiment [1], the pKd was above 9.70. Moreover, the inhibition at 10 µM in experiment [2] and in experiment [3] was below 50% throughout.
Turning to `CNc1cc(Nc2cccn(-c3ccc(C)nc3)c2=O)nc2c(C(=O)N[C@@H]3C[C@@H]3F)cnn12` [I-766], the pKd in experiment [1] is above 9.70. The inhibition at 10 µM in experiment [2] and in experiment [3] was below 50% throughout.
Compound `CNc1cc(Nc2cccn(-c3ccc(C)nc3)c2=O)nc2c(C(=O)NCC(C)(C)CO)cnn12` [I-767] gave a negative-log Kd (pKd) in experiment [1] above 9.70. The inhibition at 10 µM in experiment [2] and in experiment [3] was below 50% throughout.
Compound `CNc1cc(Nc2cccn(-c3nc(C)co3)c2=O)nc2c(C(=O)N[C@@H]3CC[C@H]3O)cnn12` [I-768] showed a pKd in experiment [1] above 9.70. Besides, the inhibition at 10 µM in experiment [2] and in experiment [3] was below 50% each time.
Compound `CNc1cc(Nc2cccc3ocnc23)nc2c(C(=O)N[C@H]3CC[C@H]3O)cnn12` [I-771] had a negative logarithm of the Kd (pKd) in experiment [1] of 9.00 to 9.70. Moreover, the inhibition at 10 µM in experiment [2] and in experiment [3] was below 50% each time.
As for `CNc1cc(Nc2cccc([C@H]3CCCOC3)n2)nc2c(C(=O)N[C@H]3COC[C@H]3O)cnn12` [I-774], the negative-log Kd (pKd) in experiment [1] was 8.00 to 9.00. Moreover, the “Tyk2 JH1% Inhibition @ 10 μM” value in experiment [2] is on record as “A (percent inhibition at 10 μM lower than 50)”. For the same compound, the “JAK2 JH1% Inhibition @ 10 μM” value in experiment [3] was “A (percent inhibition at 10 μM lower than 50)”.
Turning to `CNc1cc(Nc2cccc([C@H]3CCCOC3)n2)nc2c(C(=O)N[C@@H]3COC[C@@H]3O)cnn12` [I-775], the pKd in experiment [1] was above 9.70. Further, in experiment [2], the “Tyk2 JH1% Inhibition @ 10 μM” value is given as “A (percent inhibition at 10 μM lower than 50)”. Moreover, the “JAK2 JH1% Inhibition @ 10 μM” value in experiment [3] is on record as “A (percent inhibition at 10 μM lower than 50)”.
`CNc1cc(-c2cn(CCN3CCOCC3)c3ncccc23)nc2c(C(=O)N[C@H]3CC[C@H]3O)cnn12` [I-778]: in experiment [1], the pKd is above 9.70. In addition, the inhibition at 10 µM in experiment [2] and in experiment [3] was below 50% each time.
